Results on twelve compounds are retold here after patent US20170022171A1, “2,5-DISUBSTITUTED CYCLOPENTANECARBOXYLIC ACIDS AND THEIR USE” (Bayer Pharma Aktiengesellschaft, priority 2014, published 2017).

What all share (format): biochemical
The target in one test is T1, MMP-3 (Homo sapiens, UniProt P08254).
T1 construct: purchased R&D Systems 513-MP
Kind of test: In vitro MMP-3 inhibition test. The gist of the method: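 APMA-activated recombinant MMP-3 (e.g. 2 nM final) preincubated with compound in 50 mM Tris/HCl pH 7.5, 10 mM CaCl2, 150 mM NaCl, 0.05% Brij-35; quenched Mca/Dnp peptide substrate (e.g. 10 μM) started the reaction. Fluorescence (ex 320/em 410 nm) followed e.g. 120 min at 32° C; IC50 at 50% signal.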

The target of a further test is T2, MMP-8 (Homo sapiens, UniProt P22894).
T2 construct: purchased R&D Systems 908-MP
Kind of test: In vitro MMP-8 inhibition test. The gist of the method: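 APMA-activated recombinant MMP-8 (final e.g. 0.5 nM) preincubated with compound in DMSO (e.g. 1 nM–30 μM) in 50 mM Tris/HCl pH 7.5, 10 mM CaCl2, 150 mM NaCl, 0.05% Brij-35. Reaction started with quenched Mca-Pro-Leu-Gly-Leu-Dpa(Dnp)-Ala-Arg-NH2 substrate (e.g. 10 μM); fluorescence (ex 320/em 410 nm) followed e.g. 120 min at 32° C; IC50 at 50% signal.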

Another test concerns the target T3, MMP-9 (Homo sapiens, UniProt P14780).
T3 construct: purchased R&D Systems 911-MP
As to the kind of experiment: In vitro MMP-9 inhibition test. In outline: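 Recombinant MMP-9 was APMA-activated and used at e.g. 0.1 nM final in 50 mM Tris/HCl pH 7.5, 10 mM CaCl2, 150 mM NaCl, 0.05% Brij-35, with compound at e.g. 1 nM to 30 μM. Quenched Mca-Pro-Leu-Gly-Leu-Dpa(Dnp)-Ala-Arg-NH2 substrate (e.g. 10 μM) was followed by fluorescence (ex 320/em 410 nm), e.g. 120 min at 32 °C. IC50 corresponds to 50% signal.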

The target of another test is T4, mouse MMP-8 (Mus musculus, UniProt O70138).
T4 construct: purchased R&D Systems 2904-MP
Kind of test: In vitro mouse MMP-8 inhibition test. From the text: (§1) The MMP-mediated amidolytic cleavage of a suitable peptide substrate leads to an increase in fluorescent light here too. The signal intensity of the fluorescent light is directly proportional to the enzyme activity. The active concentration of a test compound at which half the enzyme is inhibited (50% signal intensity of the fluorescent light) is reported as the IC50 value.
Recombinant mouse MMP-8 (from R&D Systems, 2904-MP) is chemically activated in accordance with the manufacturer's instructions using APMA. 1 μl of the test compound to be analysed (as a solution in DMSO, suitable concentrations, for example, 1 nM to 30 μM) is pipetted into 24 μl of activated enzyme (final concentration, for example, 2 nM) in reaction buffer (50 mM Tris/HCl pH 7.5, 10 mM CaCl2, 150 mM NaCl, 0.05% Brij®-35) in a white 384-hole microtiter plate (MTP). The enzymatic reaction is started by adding the intramolecularly quenched Mca-Lys-Pro-Leu-Gly-Leu-Dpa(Dnp)-Ala-Arg-NH2 substrate (final concentration, for example, 5 μM; R&D Systems, ES-010), so as to result in a total test volume of 50 μl. The course of the MMP-8 reaction is measured by measuring the fluorescence intensity (excitation 320 nm, emission 410 nm) over a suitable period of time (for example over 120 min at a temperature of 32° C.).

The next test addresses T5, mouse MMP-12 (Mus musculus, UniProt P34960).
T5 construct: purchased R&D Systems 3467-MP
As to the kind of experiment: In vitro mouse MMP-12 inhibition test (standard or high-sensitivity).
Source text: as §1
Recombinant mouse MMP-12 (from R&D Systems, 3467-MP) is autocatalytically activated in accordance with the manufacturer's instructions. 1 μl of the test compound to be analysed (as a solution in DMSO, suitable concentrations, for example, 1 nM to 30 μM) is pipetted into 24 μl of activated enzyme (final concentration, for example, 1 nM) in reaction buffer (50 mM Tris/HCl pH 7.5, 10 mM CaCl2, 150 mM NaCl, 0.05% Brij®-35) in a white 384-hole microtiter plate (MTP). The enzymatic reaction is started by adding the intramolecularly quenched Mca-Lys-Pro-Leu-Gly-Leu-Dpa(Dnp)-Ala-Arg-NH2 substrate (final concentration, for example, 5 μM; R&D Systems, ES-010), so as to result in a total test volume of 50 The course of the MMP-12 reaction is measured by measuring the fluorescence intensity (excitation 320 nm, emission 410 nm) over a suitable period of time (for example over 120 min at a temperature of 32° C.).
In this case, an enzyme concentration ten times lower is used (final concentration, for example, 0.1 nM) in order to achieve an elevated test sensitivity. The incubation period chosen for the test is correspondingly longer (for example 16 hours).

T3 sequence (P14780 107-707 limits assumed): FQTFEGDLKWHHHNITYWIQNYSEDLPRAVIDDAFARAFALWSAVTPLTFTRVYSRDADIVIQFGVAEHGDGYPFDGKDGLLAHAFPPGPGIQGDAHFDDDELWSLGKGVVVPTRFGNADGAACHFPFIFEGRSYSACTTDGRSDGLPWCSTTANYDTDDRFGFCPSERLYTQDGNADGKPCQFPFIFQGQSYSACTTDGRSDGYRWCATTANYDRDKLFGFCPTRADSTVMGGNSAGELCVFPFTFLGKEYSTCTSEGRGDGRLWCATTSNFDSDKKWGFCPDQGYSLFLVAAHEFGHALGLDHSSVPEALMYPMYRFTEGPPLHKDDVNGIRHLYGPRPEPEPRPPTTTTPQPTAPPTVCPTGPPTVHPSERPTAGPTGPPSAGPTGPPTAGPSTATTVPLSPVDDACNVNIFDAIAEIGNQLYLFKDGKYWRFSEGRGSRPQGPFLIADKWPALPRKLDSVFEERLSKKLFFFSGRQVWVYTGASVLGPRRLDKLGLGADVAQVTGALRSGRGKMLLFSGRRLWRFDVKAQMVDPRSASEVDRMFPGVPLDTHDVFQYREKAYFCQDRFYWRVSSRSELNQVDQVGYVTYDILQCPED
T2 sequence (P22894 101-467): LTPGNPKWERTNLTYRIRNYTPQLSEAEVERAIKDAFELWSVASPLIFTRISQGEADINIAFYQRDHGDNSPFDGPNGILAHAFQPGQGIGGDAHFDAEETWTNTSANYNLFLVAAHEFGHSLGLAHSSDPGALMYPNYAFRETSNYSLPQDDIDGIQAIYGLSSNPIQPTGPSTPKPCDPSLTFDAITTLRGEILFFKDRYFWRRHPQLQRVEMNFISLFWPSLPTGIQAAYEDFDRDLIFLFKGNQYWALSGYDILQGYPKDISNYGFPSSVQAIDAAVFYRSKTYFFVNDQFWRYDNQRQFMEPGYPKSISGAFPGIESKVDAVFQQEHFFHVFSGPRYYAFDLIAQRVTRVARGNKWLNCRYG
T5 sequence (P34960 110-473): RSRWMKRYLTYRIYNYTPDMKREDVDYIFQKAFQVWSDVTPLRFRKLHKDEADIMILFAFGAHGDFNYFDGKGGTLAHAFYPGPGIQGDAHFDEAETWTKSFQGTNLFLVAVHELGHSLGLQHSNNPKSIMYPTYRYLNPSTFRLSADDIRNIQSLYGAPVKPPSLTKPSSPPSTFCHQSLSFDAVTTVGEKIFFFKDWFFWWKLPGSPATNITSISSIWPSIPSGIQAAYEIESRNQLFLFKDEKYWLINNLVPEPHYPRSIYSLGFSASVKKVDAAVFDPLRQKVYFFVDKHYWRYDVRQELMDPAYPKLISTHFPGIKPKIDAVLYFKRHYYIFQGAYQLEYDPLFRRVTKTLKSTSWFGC
T4 sequence (O70138 101-465): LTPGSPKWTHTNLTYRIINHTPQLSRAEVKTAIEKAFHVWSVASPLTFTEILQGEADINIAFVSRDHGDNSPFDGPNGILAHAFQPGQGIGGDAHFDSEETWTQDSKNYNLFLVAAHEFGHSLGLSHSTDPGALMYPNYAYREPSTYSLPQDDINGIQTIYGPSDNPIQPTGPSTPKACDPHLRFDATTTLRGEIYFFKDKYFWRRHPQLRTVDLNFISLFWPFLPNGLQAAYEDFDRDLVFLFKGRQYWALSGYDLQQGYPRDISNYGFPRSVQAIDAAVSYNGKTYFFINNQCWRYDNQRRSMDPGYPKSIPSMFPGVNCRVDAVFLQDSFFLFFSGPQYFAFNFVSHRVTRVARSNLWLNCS
T1 sequence (P08254 100-477): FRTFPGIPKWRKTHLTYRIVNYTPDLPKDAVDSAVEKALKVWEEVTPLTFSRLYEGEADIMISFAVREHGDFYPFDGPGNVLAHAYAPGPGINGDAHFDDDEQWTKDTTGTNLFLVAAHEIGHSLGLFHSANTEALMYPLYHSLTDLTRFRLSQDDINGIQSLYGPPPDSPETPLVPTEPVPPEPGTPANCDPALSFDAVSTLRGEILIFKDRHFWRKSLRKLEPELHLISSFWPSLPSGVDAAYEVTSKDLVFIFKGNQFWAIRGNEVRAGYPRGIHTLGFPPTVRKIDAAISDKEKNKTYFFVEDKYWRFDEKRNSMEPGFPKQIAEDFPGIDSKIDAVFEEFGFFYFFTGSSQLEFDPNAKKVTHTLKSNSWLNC

`O=C(O)[C@H]1[C@H](Cn2nnc3ccc(C(F)(F)F)cc3c2=O)CC[C@@H]1C(=O)c1ccc(OCCCc2ccccc2)cc1` (racemic) [Example 39, (+/−)-(1RS,2SR,5RS)-2-{[4-Oxo-6-(trifluoromethyl)-1,2,3-benzotriazin-3(4H)-yl]methyl}-5-[4-(3-phenylpropoxy)benzoyl]cyclopentanecarboxylic acid]: the IC50 was found to be 420 nM against MMP-3; 290 nM on MMP-8; 780 nM at MMP-9; 640 nM at mouse MMP-8; 11 nM against mouse MMP-12.
In the same order, the values of `Cc1ccc2nnn(C[C@H]3CC[C@@H](C(=O)c4ccc(OCC5CCCCC5)cc4)[C@@H]3C(=O)O)c(=O)c2c1` (single isomer, unassigned) [Example 117, (+)-(1RS,2RS,5SR)-2-[4-(Cyclohexylmethoxy)benzoyl]-5-[(6-methyl-4-oxo-1,2,3-benzotriazin-3(4H)-yl)methyl]cyclopentanecarboxylic acid] are 110 nM, 4 nM, 54 nM, 13 nM and 0.62 nM.
In the same order, the values of `O=C(O)[C@H]1[C@H](Cn2nnc3ccc(C(F)(F)F)cc3c2=O)CC[C@@H]1C(=O)c1ccc(OCc2ccccc2)cc1` (racemic) [Example 11, (+/−)-(1RS,2RS,5SR)-2-[4-(Benzyloxy)benzoyl]-5-{[4-oxo-6-(trifluoromethyl)-1,2,3-benzotriazin-3(4H)-yl]methyl}cyclopentanecarboxylic acid] are 100 nM, 3.2 nM, 18 nM, 18 nM and 1.8 nM.
In the same order, the values of `Cc1ccc2nnn(C[C@@H]3CC[C@H](C(=O)c4ccc(OCc5cccc(OC(F)(F)F)c5)cc4)[C@H]3C(=O)O)c(=O)c2c1` (racemic) [Example 109, (+/−)-(1RS,2SR,5RS)-2-[(6-Methyl-4-oxo-1,2,3-benzotriazin-3(4H)-yl)methyl]-5-(4-{[3-(trifluoromethoxy)benzyl]oxy}benzoyl)cyclopentanecarboxylic acid] are 840 nM, 87 nM, 150 nM, 450 nM and 3 nM.
Take `Cc1ccc2nnn(C[C@@H]3CC[C@H](C(=O)c4ccc(OCc5cccc(Cl)c5)cc4)[C@H]3C(=O)O)c(=O)c2c1` (racemic) [Example 103, (+/−)-(1RS,2RS,5SR)-2-{4-[(3-Chlorobenzyl)oxy]benzoyl}-5-[(6-methyl-4-oxo-1,2,3-benzotriazin-3(4H)-yl)methyl]cyclopentanecarboxylic acid]: the IC50 on MMP-3 is 340 nM; at MMP-8 it was 41 nM; against MMP-9 it was 110 nM; on mouse MMP-8, 270 nM; against mouse MMP-12 it was 2.3 nM.
In the same order, the values of `O=C(O)[C@H]1[C@H](Cn2nnc3ccccc3c2=O)CC[C@@H]1C(=O)c1ccc(OCc2ccc(Cl)c(Cl)c2)cc1` (racemic) [Example 3, (+/−)-(1RS,2RS,5SR)-2-{4-[(3,4-Dichlorobenzyl)oxy]benzoyl}-5-[(4-oxo-1,2,3-benzotriazin-3(4H)-yl)methyl]cyclopentanecarboxylic acid] are 1500 nM, 260 nM, 900 nM, 810 nM and 7 nM.
In the same order, the values of `O=C(O)[C@@H]1[C@@H](Cn2nnc3ccc(C(F)(F)F)cc3c2=O)CC[C@H]1C(=O)c1ccc(OCc2cccc(Cl)c2)cc1` (single isomer, unassigned) [Example 23, (+)-(1RS,2RS,5SR)-2-{4-[(3-Chlorobenzyl)oxy]benzoyl}-5-{[4-oxo-6-(trifluoromethyl)-1,2,3-benzotriazin-3(4H)-yl]methyl}cyclopentanecarboxylic acid] are 540 nM, 56 nM, 270 nM, 300 nM and 6.5 nM.
For `COC(=O)Nc1cccc(COc2ccc(C(=O)[C@@H]3CC[C@H](Cn4nnc5ccc(C(F)(F)F)cc5c4=O)[C@H]3C(=O)O)cc2)c1` (stereo in doubt) [Example 31, (+)-(1RS,2RS,5SR)-2-[4-({3-[(Methoxycarbonyl)amino]benzyl}oxy)benzoyl]-5-{[4-oxo-6-(trifluoromethyl)-1,2,3-benzotriazin-3(4H)-yl]methyl}cyclopentanecarboxylic acid] the same measures were 280 nM, 9.1 nM, 2100 nM, 89 nM and 6.4 nM.
With `O=C(O)[C@@H]1[C@@H](Cn2nnc3ccc(C(F)(F)F)cc3c2=O)CC[C@H]1C(=O)c1ccc(SCc2ccccc2)cc1` (single isomer, unassigned) [Example 75, (+)-(1RS,2RS,5SR)-2-[4-(Benzylsulphanyl)benzoyl]-5-{[4-oxo-6-(trifluoromethyl)-1,2,3-benzotriazin-3(4H)-yl]methyl}cyclopentanecarboxylic acid], the IC50 was found to be 170 nM against MMP-3; 74 nM against MMP-8; 470 nM against MMP-9; 410 nM against mouse MMP-8; 2.3 nM at mouse MMP-12.
In the same order, the values of `O=C(O)[C@@H]1[C@@H](Cn2nnc3ccc(C(F)(F)F)cc3c2=O)CC[C@H]1C(=O)c1ccc(OCC2CCCCC2)cc1` (single isomer, unassigned) [Example 41, (+)-(1RS,2RS,5SR)-2-[4-(Cyclohexylmethoxy)benzoyl]-5-{[4-oxo-6-(trifluoromethyl)-1,2,3-benzotriazin-3(4H)-yl]methyl}cyclopentanecarboxylic acid] are 41 nM, 1.6 nM, 51 nM, 16 nM and 0.71 nM.
In the same order, the values of “(+)-(1RS,2SR,5RS)-2-{[4-Oxo-6-(trifluoromethyl)-1,2,3-benzotriazin-3(4H)-yl]methyl}-5-{4-[(2-phenylethy)sulphanyl]benzoyl}cyclopentanecarboxylic acid [Example 83]” are 450 nM, 260 nM, 2100 nM, 1100 nM and 5.7 nM.
For `Cc1ccc2nnn(C[C@H]3CC[C@@H](C(=O)c4ccc(OCc5cccc(C(F)(F)F)c5)cc4)[C@@H]3C(=O)O)c(=O)c2c1` (single isomer, unassigned) [Example 101, (+)-(1RS,2SR,5RS)-2-[(6-Methyl-4-oxo-1,2,3-benzotriazin-3(4H)-yl)methyl]-5-(4-{[3-(trifluoromethyl)benzyl]oxy}benzoyl)cyclopentanecarboxylic acid] the same measures were 880 nM, 29 nM, 100 nM, 120 nM and 1.1 nM.

As a reminder, the IC50 is the point on the concentration scale where inhibition reaches its midpoint.
